{
  "source": "patent US20240058324A1",
  "about": "“COMPOSITION FOR PREVENTION AND TREATING DEMENTIA THROUGH THE COMBINATION OF PDE5 INHIBITORS AND GLUCOCORTICOID RECEPTOR ANTAGONISTS” (ARIBIO CO., LTD., priority 2021, published 2024)",
  "key": {"[1]": {"system": "Aβ42", "assay": "Amyloid Beta 42 Human ELISA, amount of Aβ42 in RA-differentiated SH-SY5Y cells treated with Aβ1-42 oligomer", "type": "cell-based", "details": "24 h", "method": "To determine the amount of change in amyloid beta, […] cells were dispensed into T-25 flask.\nFor cell adhesion and stabilization, cells were incubated for 24 hours in DMEM/F12 Complete Medium (HyClone) containing 10% FBS (HyClone) and 1% P/S (HyClone) at 37° C. under 5% CO2 condition in a CO2 incubator (Thermo Fisher Scientific Forma).\nAfter 24 hours of cell dispensing, the cell culture medium is removed for neuron-like differentiation, and replaced with DMEM/F12 differentiation media containing 1% FBS (HyClone), 1% P/S (HyClone), 10 μM all-trans-retinoic acid (RA; Sigma--Aldrich, St. Louis, MO, USA).\nOn the third day of differentiation, the medium was replaced with a new DMEM/F12 differentiation medium. On the sixth day of differentiation, the medium of the untreated control group was replaced with a new DMEM/F12 differentiation medium and the medium of the sample treatment group was replaced with a various conditions by adding a new DMEM/F12 differentiation medium under various conditions.\nHuman Aβ1-42 (Abeam, Cambridge, MA, USA) was added upto 10 μM to DMEM/F12 Complete Medium (HyClone) containing 1% FBS (HyClone) and 1% P/S (HyClone) to form Aβ1-42 oligomer and left for 3 hours in a CO2 incubator (Thermo Fisher Scientific Forma) under 37° C. and 5% CO2 conditions to form Aβ1-42 oligomer.\nIn order to confirm the Aβ 1-42 change, the existing cell culture medium was removed from the RA-differentiated SH-SY5Y neuron-like cells, replaced with DMEM/F12 Complete Medium (HyClone) containing Aβ1-42 oligomer ([…] Fisher Scientific Forma) at 37° C. under 5% CO2 conditions to induce Aβ1-42 oligomer-induced cell damage.\nIn order to measure the amount of Aβ42 (pg/mL) in the cell, the cells were recovered and treated with the cell lysis buffer.\nThereafter, after centrifugation at 14,000 rpm 4° C. for 10 minutes, the supernatant was transferred to recover the protein. The amount of protein was quantified using the Pierce™ BCA Protein Assay Kit (Thermo Fisher Scientific). Then, the amount of Aβ42 in cells was measured using a Human Aβ42 ELISA Kit (Invitrogen)."}, "[2]": {"system": "IL-1β", "assay": "Real time RT-qPCR of pro-inflammatory cytokine IL-1β in LPS-treated IMG microglia cells", "type": "cell-based, mouse", "details": "LPS 100 ng/ml", "method": "(§1) The IMG cells, a mouse microglia cell line used in the experiments, were cultured, and maintained in DMEM complete medium (HyClone) containing 10% fetal bovine serum (FBS; Australian Orgin, HyClone, Logan, UT, USA) and 1% penicillin/streptomycin (P/S; HyClone) at 37° C. with 5% CO2 in a humidified CO2 incubator (311-TIF, Thermo Fisher Scientific Forma, MA, USA). Total 2×10^5 cells were seeded in each well of the 6-well plate and they were incubated for 24 h in the humidified CO2 incubator as mentioned above. Further, 100 ng/ml of LPS and the drugs, AR1001 2 μM and GR modulator (CORT-108297) 6, 12, 24, 36, 48 μM were treated individually or in combination.\n(§2) The cells were scraped using a cell scraper, and 2 mL of the culture solution was collected in a 15 mL conical tube, It was centrifuged at 3,000 RPM for 5 min and the supernatant (culture solution) was discarded. The pellet was resuspended in 1 mL of Trizol and it was transferred to 1.5 mL microfuge tube. Further, 0.2 mL of chloroform was added and it was vortexed for 1 min. The microfuge tube was kept in a stand for 2 min at room temperature. After centrifugation at 12,000×g for 10 min at 4° C., the supernatant (approx 500 μL) separated in a fresh microfuge tube. Equal volume of isopropanol was added to the supernatant and mixed the solution well. It was put in the microfuge tube stand for 10 min at room temperature and thereafter, centrifuged at 12,000×g for 10 min at 4° C. The supernatant was discarded and the pellet was washed twice with 75% ethanol. The RNA pellet was dried and dissolved in 10 μL DEPC treated water. After quantification of the RNA, it was converted to cDNA following the PrimeScript™ II 1st strand cDNA Synthesis Kit (Takara) protocol.\n(§3) The sample cDNAs were amplified with gene specific primers and SYBR green PCR master mix (ThermoFisher) in the model Quant Studio 5 Thermal cycler (Applied biosystems). The amplification conditions were as follows—polymerase activation at 50° C. for 2 min, predenaturation preceding at 95° C. for 10 min, total 40 cycles of denaturation at 95° C. for 15 sec, annealing at 60° C. for 30 sec and extension at 72° C. for 30 sec. The specific primer sequences are mentioned in Table-1."}, "[3]": {"system": "TNF-α", "assay": "Real time RT-qPCR of pro-inflammatory cytokine TNF-α in LPS-treated IMG microglia cells", "type": "cell-based, mouse", "details": "LPS 100 ng/ml", "method": "as §1, §2, §3"}, "[4]": {"details": "CORT-108297 0.1 μM alone, SH-SY5Y, Aβ 10 μM"}, "[5]": {"details": "CORT-108297 0.3 μM alone, SH-SY5Y, Aβ 10 μM"}, "[6]": {"details": "CORT-108297 0.6 μM alone, SH-SY5Y, Aβ 10 μM"}, "[7]": {"details": "CORT-108297 1.2 μM alone, SH-SY5Y, Aβ 10 μM"}, "[8]": {"details": "CORT-108297 1.8 μM alone, SH-SY5Y, Aβ 10 μM"}, "[9]": {"details": "CORT-108297 2.4 μM alone, SH-SY5Y, Aβ 10 μM"}, "[10]": {"details": "CORT-108297 3.0 μM alone, SH-SY5Y, Aβ 10 μM"}},
  "data": [
    {"molecule": "CCCOc1ccc(S(=O)(=O)N2CCN(CCO)CC2)cc1-c1nc2c(CCC)cn(CC)c2c(=O)[nH]1", "note": "[AR1001, mirodenafil]", "values": [
      {"measurement": "Aβ42 concentration Average concentration", "setting": "[1]; AR1001 0.1 μM alone, SH-SY5Y neuron-like cells, Aβ1-42 oligomer 10 μM", "value": 46.45, "unit": "pg/mL"},
      {"measurement": "Aβ42 Reduction rate Average reduction rate", "setting": "[1]; AR1001 0.1 μM alone, SH-SY5Y, Aβ 10 μM", "value": 1.77, "unit": "%"},
      {"measurement": "IL1β Reduction (%)", "setting": "[2]; AR1001 2 μM alone", "value": 4.70, "unit": "%"},
      {"measurement": "TNFα Reduction (%)", "setting": "[3]; AR1001 2 μM alone", "value": 8.58, "unit": "%"}
    ]},
    {"molecule": "CCOC[C@]12Cc3cnn(-c4ccc(F)cc4)c3C=C1CCN(S(=O)(=O)c1ccc(C(F)(F)F)cc1)C2", "note": "[CORT-108297]", "values": [
      {"measurement": "Aβ42 Reduction rate Average reduction rate", "setting": "[1]; [4]", "value": 4.26, "unit": "%"},
      {"measurement": "Aβ42 concentration Average concentration", "setting": "[1]; [4]", "value": 45.40, "unit": "pg/mL"},
      {"measurement": "Aβ42 Reduction rate Average reduction rate", "setting": "[1]; [5]", "value": 4.24, "unit": "%"},
      {"measurement": "Aβ42 concentration Average concentration", "setting": "[1]; [5]", "value": 45.40, "unit": "pg/mL"},
      {"measurement": "Aβ42 Reduction rate Average reduction rate", "setting": "[1]; [6]", "value": 6.88, "unit": "%"},
      {"measurement": "Aβ42 concentration Average concentration", "setting": "[1]; [6]", "value": 44.29, "unit": "pg/mL"},
      {"measurement": "Aβ42 Reduction rate Average reduction rate", "setting": "[1]; [7]", "value": 9.34, "unit": "%"},
      {"measurement": "Aβ42 concentration Average concentration", "setting": "[1]; [7]", "value": 43.25, "unit": "pg/mL"},
      {"measurement": "Aβ42 Reduction rate Average reduction rate", "setting": "[1]; [8]", "value": 11.97, "unit": "%"},
      {"measurement": "Aβ42 concentration Average concentration", "setting": "[1]; [8]", "value": 42.14, "unit": "pg/mL"},
      {"measurement": "Aβ42 Reduction rate Average reduction rate", "setting": "[1]; [9]", "value": 17.91, "unit": "%"},
      {"measurement": "Aβ42 concentration Average concentration", "setting": "[1]; [9]", "value": 39.64, "unit": "pg/mL"},
      {"measurement": "Aβ42 Reduction rate Average reduction rate", "setting": "[1]; [10]", "value": 31.34, "unit": "%"},
      {"measurement": "Aβ42 concentration Average concentration", "setting": "[1]; [10]", "value": 33.97, "unit": "pg/mL"},
      {"measurement": "IL1β Reduction (%)", "setting": "[2]; CORT-108297 6 μM alone", "value": 7.02, "unit": "%"},
      {"measurement": "IL1β Reduction (%)", "setting": "[2]; CORT-108297 12 μM alone", "value": 8.38, "unit": "%"},
      {"measurement": "IL1β Reduction (%)", "setting": "[2]; CORT-108297 24 μM alone", "value": 17.88, "unit": "%"},
      {"measurement": "IL1β Reduction (%)", "setting": "[2]; CORT-108297 36 μM alone", "value": 35.86, "unit": "%"},
      {"measurement": "IL1β Reduction (%)", "setting": "[2]; CORT-108297 48 μM alone", "value": 57.37, "unit": "%"},
      {"measurement": "TNFα Reduction (%)", "setting": "[3]; CORT-108297 6 μM alone", "value": 9.41, "unit": "%"},
      {"measurement": "TNFα Reduction (%)", "setting": "[3]; CORT-108297 12 μM alone", "value": 15.52, "unit": "%"},
      {"measurement": "TNFα Reduction (%)", "setting": "[3]; CORT-108297 24 μM alone", "value": 23.86, "unit": "%"},
      {"measurement": "TNFα Reduction (%)", "setting": "[3]; CORT-108297 36 μM alone", "value": 37.30, "unit": "%"},
      {"measurement": "TNFα Reduction (%)", "setting": "[3]; CORT-108297 48 μM alone", "value": 52.51, "unit": "%"}
    ]}
  ]
}
